Converted amounts (≈) assume the structure as drawn. The source made the active and inactive calls. The calls are words filed in the database; no cut-off is given here.
Columns and labels:
Candida albicans [1] = assay: Synergistic antifungal activity against Candida albicans ATCC 76615 assessed as fractional inhibitory concentration index in presence of fluconazole incubated for 24 hrs by half broth dilution based checkerboard method; format: functional
Aspergillus flavus [2] = assay: Antifungal activity against Aspergillus flavus ATCC 16870 incubated for 24 hrs by half broth dilution based checkerboard method; format: functional
Cryptococcus neoformans [3] = assay: Antifungal activity against Cryptococcus neoformans ATCC 32719 incubated for 24 hrs by half broth dilution based checkerboard method; format: functional
A549 [4] = assay: Cytotoxicity against human A549 cells assessed as reduction in cell viability at 8 microg/ml incubated for 24 hrs by CCK-8 assay relative to control; format: toxicity, cell-based; conditions: a549, 24 h, at 8 µg/mL
Aspergillus fumigatus [5] = assay: Antifungal activity against fluconazole-resistant Aspergillus fumigatus GIMCC 3.19 assessed as inhibition of fungal growth incubated for 24 to 72 hrs; format: functional; conditions: time 24-72 hrs
Aspergillus flavus [6] = assay: Antifungal activity against Aspergillus flavus ATCC 16870 assessed as fluconazole MIC incubated for 24 hrs in presence of fluconazole by half broth dilution based checkerboard method; format: functional
Candida albicans [7] = assay: Synergistic antifungal activity against Candida albicans ATCC 76615 assessed as fractional inhibitory concentration index in presence of Polyoxin B incubated for 24 hrs by half broth dilution based checkerboard method; format: functional
Aspergillus flavus [8] = assay: Antifungal activity against fluconazole-resistant Aspergillus flavus ATCC 16870 assessed as inhibition of fungal growth incubated for 24 to 72 hrs; format: functional; conditions: time 24-72 hrs
Aspergillus flavus [9] = assay: Synergistic antifungal activity against Aspergillus flavus ATCC 16870 assessed as fractional inhibitory concentration index in presence of fluconazole incubated for 24 hrs by half broth dilution based checkerboard method; format: functional
Aspergillus fumigatus [10] = assay: Synergistic antifungal activity against Aspergillus fumigatus GIMCC 3.19 assessed as fractional inhibitory concentration index in presence of fluconazole incubated for 24 hrs by half broth dilution based checkerboard method; format: functional
Aspergillus flavus [11] = assay: Antifungal activity against Aspergillus flavus ATCC 16870 assessed as Polyoxin B MIC incubated for 24 hrs in presence of fluconazole by half broth dilution based checkerboard method; format: functional
A549 [12] = assay: Cytotoxicity against human A549 cells assessed as reduction in cell viability at 16 microg/ml incubated for 24 hrs by CCK-8 assay relative to control; format: toxicity, cell-based; conditions: a549, 24 h, at 16 µg/mL
Candida albicans [13] = assay: Antifungal activity against Candida albicans ATCC 76615 assessed as fluconazole MIC incubated for 24 hrs in presence of fluconazole by half broth dilution based checkerboard method; format: functional
A549 [14] = assay: Cytotoxicity against human A549 cells assessed as reduction in cell viability at 64 microg/ml incubated for 24 hrs by CCK-8 assay relative to control; format: toxicity, cell-based; conditions: a549, 24 h, at 64 µg/mL
Candida albicans [15] = assay: Antifungal activity against drug-resistant Candida albicans ATCC 76615 assessed as inhibition of cell wall synthesis in presence of sorbitol incubated for 24 hrs; format: functional
A549 [16] = assay: Cytotoxicity against human A549 cells assessed as reduction in cell viability at 4 microg/ml incubated for 24 hrs by CCK-8 assay relative to control; format: toxicity, cell-based; conditions: a549, 24 h, at 4 µg/mL
Aspergillus fumigatus [17] = assay: Antifungal activity against Aspergillus fumigatus GIMCC 3.19 incubated for 24 hrs by half broth dilution based checkerboard method; format: functional
Cryptococcus neoformans [18] = assay: Synergistic antifungal activity against Cryptococcus neoformans ATCC 32719 assessed as fractional inhibitory concentration index in presence of Polyoxin B incubated for 24 hrs by half broth dilution based checkerboard method; format: functional
Cryptococcus neoformans [19] = assay: Antifungal activity against Cryptococcus neoformans ATCC 32719 assessed as Polyoxin B MIC incubated for 24 hrs in presence of fluconazole by half broth dilution based checkerboard method; format: functional
Aspergillus fumigatus [20] = assay: Synergistic antifungal activity against Aspergillus fumigatus GIMCC 3.19 assessed as fractional inhibitory concentration index in presence of Polyoxin B incubated for 24 hrs by half broth dilution based checkerboard method; format: functional
Candida tropicalis [21] = assay: Inhibition of chitin synthase extracted from Candida tropicalis ATCC 750 using UDP-GlcNAc as substrate assessed as inhibition rate at 300 ug/ml by TMB based microplate analyzer relative to control; conditions: dose 300.0 µg/ml
Candida albicans [22] = assay: Antifungal activity against micafungin-resistant Candida albicans ATCC 76615 assessed as inhibition of fungal growth incubated for 24 to 72 hrs; format: functional; conditions: time 24-72 hrs
Cryptococcus neoformans [23] = assay: Antifungal activity against Cryptococcus neoformans ATCC 32719 assessed as fluconazole MIC incubated for 24 hrs in presence of fluconazole by half broth dilution based checkerboard method; format: functional
Candida albicans [24] = assay: Antifungal activity against Candida albicans ATCC 76615 assessed as Polyoxin B MIC incubated for 24 hrs in presence of fluconazole by half broth dilution based checkerboard method; format: functional
[25] = Non-competitive inhibition of chitin synthase extracted from Candida tropicalis ATCC 750 using UDP-GlcNAc as substrate assessed as inhibition constant by Lineweaver-Burk plot analysis
Aspergillus fumigatus [26] = assay: Antifungal activity against drug-resistant Aspergillus fumigatus GIMCC 3.19 assessed as inhibition of cell wall synthesis in presence of sorbitol incubated for 24 hrs; format: functional
Candida albicans [27] = assay: Antifungal activity against fluconazole-resistant Candida albicans ATCC 76615 assessed as inhibition of fungal growth incubated for 24 to 72 hrs; format: functional; conditions: time 24-72 hrs
Aspergillus fumigatus [28] = assay: Antifungal activity against Aspergillus fumigatus GIMCC 3.19 assessed as fluconazole MIC incubated for 24 hrs in presence of fluconazole by half broth dilution based checkerboard method; format: functional
Candida albicans [29] = assay: Antifungal activity against Candida albicans ATCC 76615 incubated for 24 hrs by half broth dilution based checkerboard method; format: functional
Candida albicans [30] = assay: Antifungal activity against Candida albicans ATCC 76615 assessed as inhibition of growth incubated for 24 hrs by two-fold serial dilution method; format: functional
Aspergillus flavus [31] = assay: Antifungal activity against drug-resistant Aspergillus flavus ATCC 16870 assessed as inhibition of cell wall synthesis in presence of sorbitol incubated for 24 hrs; format: functional
Cryptococcus neoformans [32] = assay: Antifungal activity against fluconazole-resistant Cryptococcus neoformans ATCC 32719 assessed as inhibition of fungal growth incubated for 24 to 72 hrs; format: functional; conditions: time 24-72 hrs
Cryptococcus neoformans [33] = assay: Synergistic antifungal activity against Cryptococcus neoformans ATCC 32719 assessed as fractional inhibitory concentration index in presence of fluconazole incubated for 24 hrs by half broth dilution based checkerboard method; format: functional
[34] = Inhibition of chitin synthase extracted from Candida tropicalis ATCC 750 using UDP-GlcNAc as substrate assessed as inhibition rate by TMB based microplate analyzer relative to control
Cryptococcus neoformans [35] = assay: Antifungal activity against drug-resistant Cryptococcus neoformans ATCC 32719 assessed as inhibition of cell wall synthesis in presence of sorbitol incubated for 24 hrs; format: functional
A549 [36] = assay: Cytotoxicity against human A549 cells assessed as reduction in cell viability at 32 microg/ml incubated for 24 hrs by CCK-8 assay relative to control; format: toxicity, cell-based; conditions: a549, 24 h, at 32 µg/mL
Aspergillus fumigatus [37] = assay: Antifungal activity against Aspergillus fumigatus GIMCC 3.19 assessed as Polyoxin B MIC incubated for 24 hrs in presence of fluconazole by half broth dilution based checkerboard method; format: functional
Cryptococcus neoformans [38] = assay: Antifungal activity against Cryptococcus neoformans ATCC 32719 assessed as inhibition of growth incubated for 24 hrs by two-fold serial dilution method; format: functional
Candida tropicalis [39] = assay: Non-competitive inhibition of chitin synthase extracted from Candida tropicalis ATCC 750 using UDP-GlcNAc as substrate assessed as decrease in Vm with constant Km at 0 to 0.15 mM by Lineweaver-Burk plot analysis; conditions: dose 0-0.15 mM
Aspergillus flavus [40] = assay: Synergistic antifungal activity against Aspergillus flavus ATCC 16870 assessed as fractional inhibitory concentration index in presence of Polyoxin B incubated for 24 hrs by half broth dilution based checkerboard method; format: functional
Aspergillus fumigatus [41] = assay: Antifungal activity against Aspergillus fumigatus GIMCC 3.19 assessed as inhibition of growth incubated for 24 hrs by two-fold serial dilution method; format: functional
Aspergillus flavus [42] = assay: Antifungal activity against Aspergillus flavus ATCC 16870 assessed as inhibition of growth incubated for 24 hrs by two-fold serial dilution method; format: functional
A549 [43] = assay: Cytotoxicity against human A549 cells assessed as reduction in cell viability at 128 microg/ml incubated for 24 hrs by CCK-8 assay relative to control; format: toxicity, cell-based; conditions: a549, 24 h, at 128 µg/mL

O=C(/C=C/C(=O)Nc1nc2ccccc2s1)Nc1ccc2c(c1)NC(=O)C1(CCNC1=O)C2 (racemic)
fractional inhibitory concentration index (FICI) (Candida albicans [1]): 0.5 | MIC (Aspergillus flavus [2]): 4 µg/mL | MIC (Cryptococcus neoformans [3]): 2 µg/mL | Activity (A549 [4]): 90.5% | MIC (Aspergillus fumigatus [5]): 32 µg/mL (≈ 69.3 µM) | MIC (Aspergillus flavus [6]): 2 µg/mL | fractional inhibitory concentration index (FICI) (Candida albicans [7]): 0.5 | MIC (Aspergillus flavus [8]): 32 µg/mL (≈ 69.3 µM) | fractional inhibitory concentration index (FICI) (Aspergillus flavus [9]): 0.75 | fractional inhibitory concentration index (FICI) (Aspergillus fumigatus [10]): 1.5 | MIC (Aspergillus flavus [11]): 8 µg/mL | Activity (A549 [12]): 91.1% | MIC (Candida albicans [13]): 2 µg/mL | Activity (A549 [14]): 79.1% | MIC (Candida albicans [15]): 128 µg/mL | Activity (A549 [16]): 93.5% | MIC (Aspergillus fumigatus [17]): 2 µg/mL | fractional inhibitory concentration index (FICI) (Cryptococcus neoformans [18]): 1 | MIC (Cryptococcus neoformans [19]): 4 µg/mL | fractional inhibitory concentration index (FICI) (Aspergillus fumigatus [20]): 1.5 | inhibition (Candida tropicalis [21]): 82.5% | MIC (Candida albicans [22]): 64 µg/mL (≈ 139 µM) | MIC (Cryptococcus neoformans [23]): 4 µg/mL | MIC (Candida albicans [24]): 2 µg/mL | Ki [25]: 114 µM | MIC (Aspergillus fumigatus [26]): 64 µg/mL | MIC (Candida albicans [27]): 64 µg/mL (≈ 139 µM) | MIC (Aspergillus fumigatus [28]): 4 µg/mL | MIC (Candida albicans [29]): 2 µg/mL | MIC (Candida albicans [30]): 8 µg/mL (≈ 17.3 µM) | MIC (Aspergillus flavus [31]): 128 µg/mL | MIC (Cryptococcus neoformans [32]): 64 µg/mL (≈ 139 µM) | fractional inhibitory concentration index (FICI) (Cryptococcus neoformans [33]): 1 | IC50 [34]: 104 µM | MIC (Cryptococcus neoformans [35]): 64 µg/mL | Activity (A549 [36]): 87.9% | MIC (Aspergillus fumigatus [37]): 2 µg/mL | MIC (Cryptococcus neoformans [38]): 4 µg/mL (≈ 8.67 µM) | inhibition (Candida tropicalis [39]): Active | fractional inhibitory concentration index (FICI) (Aspergillus flavus [40]): 0.75 | MIC (Aspergillus fumigatus [41]): 4 µg/mL (≈ 8.67 µM) | MIC (Aspergillus flavus [42]): 16 µg/mL (≈ 34.7 µM) | Activity (A549 [43]): 68.4%

Source: ChEMBL document CHEMBL6127079, “Design and synthesis of spiro[pyrrolidine-3,3'-quinoline]-2,2'-dione derivatives as novel antifungal agents targeting chitin synthase” (Eur J Med Chem, 2024)
